# From ChEMBL document CHEMBL5465560, “Selectivity Literature for EUbOPEN Chemogenomic Library” (2024)
# Columns and labels:
# [1] = target: Amine oxidase [flavin-containing] A (Homo sapiens, UniProt P21397); assay: Selectivity interaction (Panel of non-epigenetic targets (kinases, GPCRs, ion channels, and transporters, Eurofins) ) EUB0000271b MAOA; details: at 1 µM
# [2] = target: Calcium/calmodulin-dependent protein kinase kinase 2 (Homo sapiens) (UniProt Q96RR4); details: at 10 µM
# [3] = test system: Tyrosine-protein kinase ABL1 (Homo sapiens), P00519 [Y253F]; details: at 10 µM
# [4] = target: Cholecystokinin receptor type A (Homo sapiens) (UniProt P32238); assay: Selectivity interaction (Eurofins CEREP Diversity Profile (receptors and ion channels)) EUB0000279b CCKAR; details: at 10 µM
# Cholecystokinin receptor type A (Homo sapiens), sequence (P32238 whole entry): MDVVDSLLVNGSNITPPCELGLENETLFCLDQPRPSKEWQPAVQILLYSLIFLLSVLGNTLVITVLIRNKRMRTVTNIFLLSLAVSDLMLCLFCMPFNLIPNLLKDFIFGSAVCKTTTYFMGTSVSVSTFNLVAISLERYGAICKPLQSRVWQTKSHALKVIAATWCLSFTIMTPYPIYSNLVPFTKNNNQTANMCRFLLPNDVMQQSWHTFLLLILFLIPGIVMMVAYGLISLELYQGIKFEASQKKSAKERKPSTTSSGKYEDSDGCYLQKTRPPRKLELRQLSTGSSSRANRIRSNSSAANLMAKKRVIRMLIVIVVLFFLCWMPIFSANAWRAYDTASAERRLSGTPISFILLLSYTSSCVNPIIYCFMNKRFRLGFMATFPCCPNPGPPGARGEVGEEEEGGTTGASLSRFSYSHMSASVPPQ
# [5] = target: Ribosomal protein S6 kinase alpha-6 (Homo sapiens, UniProt Q9UK32); assay: Selectivity interaction (Ambit KINOMEscan and KiNATiv profiling in Jurkat cells) EUB0000090b RPS6KA6; type: cell-based; details: at 1 µM
# Ribosomal protein S6 kinase alpha-6, sequence (Q9UK32 whole entry): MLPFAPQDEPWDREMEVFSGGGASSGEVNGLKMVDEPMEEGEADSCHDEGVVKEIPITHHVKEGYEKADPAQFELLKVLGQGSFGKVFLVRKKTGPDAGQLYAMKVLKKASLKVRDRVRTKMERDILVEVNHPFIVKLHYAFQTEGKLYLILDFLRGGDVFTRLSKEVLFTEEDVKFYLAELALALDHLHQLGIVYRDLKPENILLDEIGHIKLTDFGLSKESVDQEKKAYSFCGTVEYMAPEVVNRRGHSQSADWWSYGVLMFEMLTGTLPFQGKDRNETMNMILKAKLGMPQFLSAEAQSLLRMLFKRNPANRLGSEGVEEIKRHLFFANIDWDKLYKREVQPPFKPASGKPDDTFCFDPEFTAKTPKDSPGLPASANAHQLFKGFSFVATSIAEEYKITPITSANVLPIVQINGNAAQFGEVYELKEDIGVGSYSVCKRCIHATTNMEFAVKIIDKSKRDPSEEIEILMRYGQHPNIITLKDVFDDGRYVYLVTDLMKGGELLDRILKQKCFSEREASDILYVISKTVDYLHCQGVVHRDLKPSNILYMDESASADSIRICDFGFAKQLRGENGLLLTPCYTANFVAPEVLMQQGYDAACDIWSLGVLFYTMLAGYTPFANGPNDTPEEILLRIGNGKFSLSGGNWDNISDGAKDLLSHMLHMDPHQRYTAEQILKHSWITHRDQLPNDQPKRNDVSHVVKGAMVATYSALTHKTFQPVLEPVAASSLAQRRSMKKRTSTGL
# [6] = target: Mitogen-activated protein kinase kinase kinase 20 (Homo sapiens) (UniProt Q9NYL2); assay: Selectivity interaction (Ambit KINOMEscan and KiNATiv profiling in Jurkat cells) EUB0000090b MAP3K20; type: cell-based; details: at 1 µM
# Mitogen-activated protein kinase kinase kinase 20 (Homo sapiens), sequence (Q9NYL2 2-800 limits assumed): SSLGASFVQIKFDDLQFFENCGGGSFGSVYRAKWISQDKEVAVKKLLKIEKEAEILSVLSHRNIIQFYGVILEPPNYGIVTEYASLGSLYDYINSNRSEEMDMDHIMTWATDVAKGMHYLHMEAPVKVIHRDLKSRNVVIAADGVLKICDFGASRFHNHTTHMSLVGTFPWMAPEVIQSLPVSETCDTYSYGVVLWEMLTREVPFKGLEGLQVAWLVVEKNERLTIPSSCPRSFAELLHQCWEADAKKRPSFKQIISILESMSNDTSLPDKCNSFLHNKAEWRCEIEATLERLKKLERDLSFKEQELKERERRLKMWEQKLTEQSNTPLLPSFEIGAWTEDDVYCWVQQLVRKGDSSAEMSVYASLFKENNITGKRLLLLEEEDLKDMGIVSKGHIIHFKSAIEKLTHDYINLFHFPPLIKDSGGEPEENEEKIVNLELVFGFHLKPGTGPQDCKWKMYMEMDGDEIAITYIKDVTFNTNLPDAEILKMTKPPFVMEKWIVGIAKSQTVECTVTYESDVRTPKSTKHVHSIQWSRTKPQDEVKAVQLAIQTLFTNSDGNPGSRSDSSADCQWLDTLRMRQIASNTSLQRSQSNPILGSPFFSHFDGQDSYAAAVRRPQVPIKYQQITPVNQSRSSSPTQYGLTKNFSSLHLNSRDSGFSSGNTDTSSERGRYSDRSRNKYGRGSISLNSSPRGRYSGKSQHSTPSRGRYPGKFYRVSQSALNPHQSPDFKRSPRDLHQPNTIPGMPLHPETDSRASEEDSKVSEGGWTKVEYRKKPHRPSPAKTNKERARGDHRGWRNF
# [7] = target: STE20-like serine/threonine-protein kinase (Homo sapiens, UniProt Q9H2G2); assay: Selectivity interaction (Ambit KINOMEscan and KiNATiv profiling in Jurkat cells) EUB0000090b SLK; type: cell-based; details: at 1 µM
# [8] = target: Dual specificity tyrosine-phosphorylation-regulated kinase 1A (Homo sapiens, UniProt Q13627); assay: Selectivity interaction (KinomeScan (DiscoverX)) EUB0000655a DYRK1A; details: at 10 µM
# [9] = target: Calcium/calmodulin-dependent protein kinase kinase 2 (Homo sapiens) (UniProt Q96RR4); assay: Selectivity interaction (KinomeScan (DiscoverX)) EUB0000618a CAMKK2; details: at 10 µM
# [10] = target: Histone-lysine N-methyltransferase SETDB1 (Homo sapiens) (UniProt Q15047); details: at 10 µM
# [11] = target: Histone-lysine N-methyltransferase SUV39H2 (Homo sapiens) (UniProt Q9H5I1); details: at 10 µM
# [12] = target: Ribosomal protein S6 kinase alpha-1 (Homo sapiens, UniProt Q15418); assay: Selectivity interaction (Kinase panel (KiNativ target engagement assay in Jurkat cells)) EUB0001635a RPS6KA1; type: cell-based; details: Selectivity number of off-targets 0.0, Selectivity number of targets 233.0, Source Knowledge https://www.sciencedirect.com/science/article/pii/S2451945619300674?via%3Dihub, at 1 µM
# [13] = target: 5'-AMP-activated protein kinase catalytic subunit alpha-1 (Homo sapiens, UniProt Q13131); assay: Selectivity interaction (ActivX KiNativ screen (kinase selectivity in THP-1 cell lysates)) EUB0000639a PRKAA1; type: subcellular; details: lysate, at 0.2 µM
# 5'-AMP-activated protein kinase catalytic subunit alpha-1, sequence (Q13131 whole entry, looked up): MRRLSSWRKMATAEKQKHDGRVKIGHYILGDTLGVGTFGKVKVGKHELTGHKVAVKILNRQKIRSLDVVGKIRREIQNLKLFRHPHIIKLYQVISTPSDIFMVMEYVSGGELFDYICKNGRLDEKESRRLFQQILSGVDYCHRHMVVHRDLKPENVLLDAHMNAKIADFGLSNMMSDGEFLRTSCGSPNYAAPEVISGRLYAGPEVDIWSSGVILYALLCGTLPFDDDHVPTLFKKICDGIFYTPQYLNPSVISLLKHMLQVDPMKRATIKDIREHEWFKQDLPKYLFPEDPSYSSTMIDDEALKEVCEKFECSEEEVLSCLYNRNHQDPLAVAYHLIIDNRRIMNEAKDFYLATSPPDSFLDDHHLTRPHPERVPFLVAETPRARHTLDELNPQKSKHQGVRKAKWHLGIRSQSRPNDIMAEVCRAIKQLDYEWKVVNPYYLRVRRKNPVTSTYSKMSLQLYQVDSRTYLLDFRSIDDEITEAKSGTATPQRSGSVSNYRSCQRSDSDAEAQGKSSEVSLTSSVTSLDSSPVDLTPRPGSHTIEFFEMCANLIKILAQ
# [14] = target: T1, STE20-related kinase adapter protein alpha (Homo sapiens) (UniProt Q7RTN6); assay: Selectivity interaction (ActivX KiNativ screen (kinase selectivity in THP-1 cell lysates)) EUB0000639a STRADA; type: subcellular; details: lysate, at 0.01 µM
# T1 sequence (whole entry): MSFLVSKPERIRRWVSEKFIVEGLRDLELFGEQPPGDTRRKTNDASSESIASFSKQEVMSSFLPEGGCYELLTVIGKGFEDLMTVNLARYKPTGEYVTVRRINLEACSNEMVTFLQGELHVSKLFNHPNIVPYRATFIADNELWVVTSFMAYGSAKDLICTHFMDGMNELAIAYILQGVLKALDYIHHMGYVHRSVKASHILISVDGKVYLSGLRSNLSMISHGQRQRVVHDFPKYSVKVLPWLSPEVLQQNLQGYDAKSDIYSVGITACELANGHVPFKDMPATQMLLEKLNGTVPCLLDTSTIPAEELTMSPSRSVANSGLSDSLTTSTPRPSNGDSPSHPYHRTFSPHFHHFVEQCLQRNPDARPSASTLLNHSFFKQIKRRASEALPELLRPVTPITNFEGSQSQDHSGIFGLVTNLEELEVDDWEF
# [15] = target: T2, Aurora kinase A (Homo sapiens) (UniProt O14965); assay: Selectivity interaction (ActivX KiNativ screen (kinase selectivity in THP-1 cell lysates)) EUB0000639a STK6; type: subcellular; details: lysate, at 1 µM
# T2 sequence (whole entry): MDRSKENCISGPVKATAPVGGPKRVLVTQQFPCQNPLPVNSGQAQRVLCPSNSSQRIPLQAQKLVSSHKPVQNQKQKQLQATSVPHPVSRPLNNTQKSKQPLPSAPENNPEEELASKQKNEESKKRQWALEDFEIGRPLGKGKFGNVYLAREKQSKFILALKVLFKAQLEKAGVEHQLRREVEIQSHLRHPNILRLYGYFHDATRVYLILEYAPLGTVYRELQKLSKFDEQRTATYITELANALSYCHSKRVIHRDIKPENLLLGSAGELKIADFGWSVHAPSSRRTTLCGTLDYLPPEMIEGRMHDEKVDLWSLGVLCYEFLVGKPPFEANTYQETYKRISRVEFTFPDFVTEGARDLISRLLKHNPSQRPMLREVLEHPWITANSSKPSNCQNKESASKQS
# [16] = target: Ribosomal protein S6 kinase alpha-4 (Homo sapiens) (UniProt O75676); assay: Selectivity interaction (ProQinase) EUB0000171b RPS6KA4
# Ribosomal protein S6 kinase alpha-4 (Homo sapiens), sequence (O75676 whole entry, looked up): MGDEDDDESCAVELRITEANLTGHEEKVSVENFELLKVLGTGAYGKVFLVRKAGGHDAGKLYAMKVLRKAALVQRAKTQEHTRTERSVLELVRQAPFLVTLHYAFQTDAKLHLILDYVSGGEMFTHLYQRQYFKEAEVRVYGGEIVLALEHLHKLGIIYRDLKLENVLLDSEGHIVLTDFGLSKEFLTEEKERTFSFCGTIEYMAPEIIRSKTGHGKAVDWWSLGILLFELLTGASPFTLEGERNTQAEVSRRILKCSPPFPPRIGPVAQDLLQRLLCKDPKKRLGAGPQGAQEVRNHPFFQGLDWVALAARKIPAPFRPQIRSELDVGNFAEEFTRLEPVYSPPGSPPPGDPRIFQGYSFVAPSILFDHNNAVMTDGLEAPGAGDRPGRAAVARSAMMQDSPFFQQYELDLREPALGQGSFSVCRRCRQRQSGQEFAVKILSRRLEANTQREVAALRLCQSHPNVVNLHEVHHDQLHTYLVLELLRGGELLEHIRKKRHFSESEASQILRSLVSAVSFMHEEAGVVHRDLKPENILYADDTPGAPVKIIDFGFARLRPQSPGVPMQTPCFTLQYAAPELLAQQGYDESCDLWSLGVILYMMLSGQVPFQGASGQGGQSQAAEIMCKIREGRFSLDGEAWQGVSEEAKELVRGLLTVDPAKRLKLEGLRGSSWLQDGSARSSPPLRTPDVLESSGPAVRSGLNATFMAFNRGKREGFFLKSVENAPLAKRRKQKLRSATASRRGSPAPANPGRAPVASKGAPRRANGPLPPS
# [17] = Selectivity interaction (KinomeScan (DiscoverX)) EUB0001049a PKNB; details: at 1 µM
# [18] = target: T3, Alpha-1B adrenergic receptor (Homo sapiens) (UniProt P35368); assay: Selectivity interaction (Panel of kinases, GPCRs, ion channels and transporters (enzymatic assay)) EUB0000223bCl ADRA1B
# T3 sequence (whole entry): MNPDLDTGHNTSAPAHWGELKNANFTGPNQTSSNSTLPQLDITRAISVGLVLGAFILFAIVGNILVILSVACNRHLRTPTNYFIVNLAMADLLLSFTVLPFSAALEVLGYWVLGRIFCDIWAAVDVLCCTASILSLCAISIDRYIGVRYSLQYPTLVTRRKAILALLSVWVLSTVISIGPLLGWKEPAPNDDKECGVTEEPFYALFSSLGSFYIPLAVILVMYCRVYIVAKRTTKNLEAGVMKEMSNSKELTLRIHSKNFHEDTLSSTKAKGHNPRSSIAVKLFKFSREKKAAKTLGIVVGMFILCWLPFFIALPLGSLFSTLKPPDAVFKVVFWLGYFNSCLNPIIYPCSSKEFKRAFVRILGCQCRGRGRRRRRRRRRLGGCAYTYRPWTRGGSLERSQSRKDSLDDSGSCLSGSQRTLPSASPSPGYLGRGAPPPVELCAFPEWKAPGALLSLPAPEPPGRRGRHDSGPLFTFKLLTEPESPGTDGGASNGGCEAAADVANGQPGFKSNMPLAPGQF
# [19] = target: Tyrosine-protein kinase JAK1 (Homo sapiens, UniProt P23458); assay: Selectivity interaction (Kinase panel (33PanQinase(R) Activity Assay)) EUB0000877a JAK1
# Tyrosine-protein kinase JAK1, sequence (P23458 whole entry): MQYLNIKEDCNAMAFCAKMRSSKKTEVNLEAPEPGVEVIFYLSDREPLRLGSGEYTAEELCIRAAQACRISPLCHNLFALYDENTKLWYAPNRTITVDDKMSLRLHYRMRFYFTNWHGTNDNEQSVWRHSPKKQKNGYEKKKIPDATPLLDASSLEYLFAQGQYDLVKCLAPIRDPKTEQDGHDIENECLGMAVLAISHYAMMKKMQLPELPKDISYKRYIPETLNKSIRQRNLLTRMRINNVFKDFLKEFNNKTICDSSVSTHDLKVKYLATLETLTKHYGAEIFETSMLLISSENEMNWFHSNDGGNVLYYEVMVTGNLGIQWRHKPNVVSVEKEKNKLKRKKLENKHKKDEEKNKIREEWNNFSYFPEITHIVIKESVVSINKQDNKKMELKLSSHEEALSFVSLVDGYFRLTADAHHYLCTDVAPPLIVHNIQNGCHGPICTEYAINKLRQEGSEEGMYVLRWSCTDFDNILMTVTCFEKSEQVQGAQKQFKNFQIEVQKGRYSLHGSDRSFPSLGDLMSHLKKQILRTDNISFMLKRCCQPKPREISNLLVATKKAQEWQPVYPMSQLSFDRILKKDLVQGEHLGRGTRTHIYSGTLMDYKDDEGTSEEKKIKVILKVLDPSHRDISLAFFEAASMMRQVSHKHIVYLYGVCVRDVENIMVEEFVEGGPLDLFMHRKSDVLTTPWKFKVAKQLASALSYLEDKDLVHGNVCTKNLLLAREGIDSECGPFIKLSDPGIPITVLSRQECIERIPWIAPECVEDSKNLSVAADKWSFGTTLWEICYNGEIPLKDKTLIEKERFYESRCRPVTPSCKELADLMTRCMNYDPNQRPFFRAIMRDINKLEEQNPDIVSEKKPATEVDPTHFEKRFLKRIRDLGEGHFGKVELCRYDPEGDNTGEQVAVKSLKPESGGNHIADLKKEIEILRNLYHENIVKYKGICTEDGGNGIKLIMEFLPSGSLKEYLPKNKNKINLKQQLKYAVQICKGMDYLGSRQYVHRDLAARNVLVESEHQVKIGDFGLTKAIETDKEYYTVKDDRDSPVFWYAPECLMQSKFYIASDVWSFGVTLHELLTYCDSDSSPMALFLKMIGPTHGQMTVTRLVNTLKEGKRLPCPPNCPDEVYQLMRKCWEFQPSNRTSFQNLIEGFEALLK
# [20] = target: RAC-beta serine/threonine-protein kinase (Homo sapiens) (UniProt P31751); assay: Selectivity interaction (Kinase screening (Nanosyn)) EUB0000604a AKT2
# Calcium/calmodulin-dependent protein kinase kinase 2 (Homo sapiens), sequence (Q96RR4 2-588 limits assumed): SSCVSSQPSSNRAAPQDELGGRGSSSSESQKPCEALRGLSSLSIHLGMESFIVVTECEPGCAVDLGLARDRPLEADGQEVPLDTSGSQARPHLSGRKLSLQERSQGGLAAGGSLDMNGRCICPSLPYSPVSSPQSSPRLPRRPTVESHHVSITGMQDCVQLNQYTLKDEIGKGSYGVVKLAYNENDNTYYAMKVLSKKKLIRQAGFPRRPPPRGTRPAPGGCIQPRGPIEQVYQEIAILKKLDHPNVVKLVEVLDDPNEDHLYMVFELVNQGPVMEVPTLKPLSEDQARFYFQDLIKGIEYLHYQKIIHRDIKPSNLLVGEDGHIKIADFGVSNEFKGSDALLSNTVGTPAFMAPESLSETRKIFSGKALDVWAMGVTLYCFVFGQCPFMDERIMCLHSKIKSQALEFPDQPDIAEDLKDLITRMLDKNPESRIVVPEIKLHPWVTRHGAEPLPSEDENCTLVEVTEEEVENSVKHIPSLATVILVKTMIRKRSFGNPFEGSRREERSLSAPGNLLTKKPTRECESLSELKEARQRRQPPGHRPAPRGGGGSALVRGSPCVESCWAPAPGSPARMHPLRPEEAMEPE
compound,measurement,setting,value
Cc1cc(C)cc([C@@H]2c3cc(C)ccc3NC(=O)CN2C(=O)c2ccc(Br)s2)c1,% of inhibition,[1],12%
CCN(CC)CCCCNc1ncc2cc(-c3cc(OC)cc(OC)c3)c(NC(=O)NC(C)(C)C)nc2n1,% of control,[2],100%
same,% of control,[3],100%
CC(=O)c1cc(-c2ccccc2OCC2CC2)c2ncccn12,% of control,[4],116%
CN(C)C/C=C/C(=O)Nc1ccc(C(=O)N2CCCC(Nc3ncc(Cl)c(-c4c[nH]c5ccccc45)n3)C2)cc1 (stereo unspecified),% of control,[5],14%
same,% of control,[6],89%
same,% of control,[7],70%
CN(C)CCOc1ccc(-c2nc(-c3ccncc3)c(-c3ccc4c(c3)CC/C4=N\O)[nH]2)cc1,% of control,[8],94%
O[C@H]1CC[C@H](Nc2ncc3nc(Nc4c(F)cc(F)cc4F)n([C@H]4CCOC4)c3n2)CC1,% of control,[9],94%
CNCCN1CCC(c2cc(CN(C)C(=O)c3cccc(Oc4ccccc4)c3)ccn2)CC1,% activity,[10],> 90%
same,% activity,[11],> 90%
C=CC(=O)Nc1ccc(C(=O)Nc2[nH]nc3c2CN(C(=O)N[C@H](CN(C)C)c2ccccc2)C3(C)C)cc1,% of engagement,[12],1.2%
CC[C@@H]1[C@H](F)C(=O)N[C@@H]1COc1nccc2cc(C(N)=O)c(OC)cc12 [ZIMLOVISERTIB],% of inhibition,[13],8.7%
same,% of inhibition,[14],-6.5%
same,% of inhibition,[15],20%
C=CC(=O)Nc1cccc(C(=O)Nc2ccc(Nc3cc(-c4[nH]c(SC)nc4C)ccn3)cc2)c1,% of control,[16]; at 1 µM,97%
same,% of control,[16]; at 5 µM,94%
COc1cc(Nc2nc(C)cc(-c3cnn4nc(OC)ccc34)n2)cc(C(F)(F)F)c1,% of control,[17],71%
COc1cc(C(=O)N2CC[C@@H](O)[C@@H](N)C2)cc2nc(-c3cc4ccccc4n3CC3CC3)n(C)c12,pXC50,[18],4.9 M
CCC(=O)N1CC[C@H](Nc2ncnc3c2CN(c2cnc(OC)c(C(F)(F)F)c2)CC3)C1 [LENIOLISIB],IC50,[19],> 10 µM
Cc1cnc(Nc2ccc(F)cc2Cl)nc1-c1c[nH]c(C(=O)N[C@H](CO)c2cccc(Cl)c2)c1,% of inhibition,[20],0%
